The target in one test is PI3Kα (Homo sapiens (Human), UniProt P42336). Kind of test: Inhibition on PI3K kinase activity (Kinase-Glo Plus luminescent assay). The test is classed as biochemical. The settings on record: 2 μM ATP, 1 hour at room temperature. The protocol:
The activity of purified kinase was detected with Kinase-Glo® Plus kinase luminescent assay by measuring the amount of the remaining […] in the solution after the kinase reaction was completed. […] After reaction was performed for 1 hour at room temperature, 10 μL of Kinase Glo-Plus mixture was added and incubated for 1 hour to quench the reaction.

Test [1] has as its system human rhabdomyosarcoma Rh30 cells. Kind of test: Proliferation of Rh30 cells (sulforhodamine B). Type of test: cell-based. The following applies: Homo sapiens, Rh30, 72 h; read-out: IC50 against proliferation of Rh30 cells. How it is done:
Rh30 cells were seeded in a 96-well plate at 3000 cells/well. After the cells adhered, tested compounds at concentration of 10, 3, 1, 0.3, or 0.1 μM were added, and incubated for 72 h. The culture media were discarded and cells were fixed with trichloroacetic acid. After washed with distilled water for five times and dried, sulfonylrhodamine B was added. After washed with 1% glacial acetic acid for five times and dried, trihydroxymethylaminomethane buffer was added. OD value was measured by using a microplate reader at a wavelength of 560 nm.

For a further test, the system named is B-BT474. Kind of test: Proliferation of human cancer cell panel. Type of test: cell-based. The settings on record: read-out: inhibitory activity on proliferation. From the text:
(§1) I-30 and I-33 were selected to test their activity on the proliferation of human cancer cells originated from different tissue types.

In the next test the test system is B-MCF-7. Kind of test: Proliferation of human cancer cell panel. The test is classed as cell-based. The settings on record: read-out: inhibitory activity on proliferation.
Excerpt: as §1

A further test relates to LG-NCI-H23. Kind of test: Proliferation of human cancer cell panel. The following applies: read-out: inhibitory activity on proliferation. The test is classed as cell-based.
Excerpt: as §1

In another test the test system is LG-NCI-H460. Kind of test: Proliferation of human cancer cell panel. The test is classed as cell-based. The settings on record: read-out: inhibitory activity on proliferation.
Excerpt: as §1

For a further test, the system named is O-SKOV-3. Kind of test: Proliferation of human cancer cell panel. The settings on record: read-out: inhibitory activity on proliferation. The test is classed as cell-based.
Excerpt: as §1

Another test relates to P-PC-3. Kind of test: Proliferation of human cancer cell panel. Type of test: cell-based. The settings on record: read-out: inhibitory activity on proliferation.
Excerpt: as §1

For test [2], the system named is colon cancer cells C-HCT-116. Kind of test: Proliferation of human cancer cell panel. The test is classed as cell-based. The settings on record: read-out: inhibitory activity on proliferation.
Excerpt: as §1

The subject of test [3] is colorectal cancer cells C-LOVO. Kind of test: Proliferation of human cancer cell panel. Type of test: cell-based. The settings on record: read-out: inhibitory activity on proliferation.
Excerpt: as §1

In test [4] the test system is endometrial cancer cells E-RL95-2. Kind of test: Proliferation of human cancer cell panel. The settings on record: read-out: inhibitory activity on proliferation. The test is classed as cell-based.
Excerpt: as §1

Test [5] concerns gastric cancer cells G-MKN-45. Kind of test: Proliferation of human cancer cell panel. The test is classed as cell-based. The following applies: read-out: inhibitory activity on proliferation.
Excerpt: as §1

In test [6] the test system is hepatoma cells L-BEL-7402. Kind of test: Proliferation of human cancer cell panel. The test is classed as cell-based. The settings on record: read-out: inhibitory activity on proliferation.
Excerpt: as §1

Test [7] deals with rhabdomyosarcoma cells S-RH30. Kind of test: Proliferation of human cancer cell panel. The following applies: read-out: inhibitory activity on proliferation. Type of test: cell-based.
Excerpt: as §1

Test [8] deals with human neuroglioma U87-MG xenograft. Kind of test: Growth of U87-MG xenograft subcutaneously transplanted in nude mouse. Type of test: in vivo. The following applies: 50 mg/kg p.o. once a day. The protocol:
Well-developed tumors in nude mice were cut into 1.5 mm3 fragments and transplanted s.c. into the right flank of nude mice under sterile conditions. The diameters of subcutaneously transplanted tumours in nude mice were measured with a vernier calipe. […] Control groups were given the same amount of blank solvent, and treatment groups received tested compounds (p.o.). Compounds were administrated once a day for three weeks. Throughout the experiment, the sizes of the tumours were measured twice per week and meanwile the body weights of mice were weighed. The tumour volume (TV) was calculated as follows: TV=½×a×b2, wherein a and b represent the length and width, respectively. The individual relative tumour volume (RTV) was calculated as follows: RTV=Vt/V0, where V0 is the volume at the beginning of the treatment and Vt is the volume measured every time. Evaluation index of antitumor activity was relative tumor proliferation rate T/C (%), the calculation formula of which was as follows: T/C (%)=(TRTV/CRTV)×100%, TRTV:RTV of treatment group; CRTV:RTV of negative control group.

Sequence of PI3Kα (P42336 whole entry): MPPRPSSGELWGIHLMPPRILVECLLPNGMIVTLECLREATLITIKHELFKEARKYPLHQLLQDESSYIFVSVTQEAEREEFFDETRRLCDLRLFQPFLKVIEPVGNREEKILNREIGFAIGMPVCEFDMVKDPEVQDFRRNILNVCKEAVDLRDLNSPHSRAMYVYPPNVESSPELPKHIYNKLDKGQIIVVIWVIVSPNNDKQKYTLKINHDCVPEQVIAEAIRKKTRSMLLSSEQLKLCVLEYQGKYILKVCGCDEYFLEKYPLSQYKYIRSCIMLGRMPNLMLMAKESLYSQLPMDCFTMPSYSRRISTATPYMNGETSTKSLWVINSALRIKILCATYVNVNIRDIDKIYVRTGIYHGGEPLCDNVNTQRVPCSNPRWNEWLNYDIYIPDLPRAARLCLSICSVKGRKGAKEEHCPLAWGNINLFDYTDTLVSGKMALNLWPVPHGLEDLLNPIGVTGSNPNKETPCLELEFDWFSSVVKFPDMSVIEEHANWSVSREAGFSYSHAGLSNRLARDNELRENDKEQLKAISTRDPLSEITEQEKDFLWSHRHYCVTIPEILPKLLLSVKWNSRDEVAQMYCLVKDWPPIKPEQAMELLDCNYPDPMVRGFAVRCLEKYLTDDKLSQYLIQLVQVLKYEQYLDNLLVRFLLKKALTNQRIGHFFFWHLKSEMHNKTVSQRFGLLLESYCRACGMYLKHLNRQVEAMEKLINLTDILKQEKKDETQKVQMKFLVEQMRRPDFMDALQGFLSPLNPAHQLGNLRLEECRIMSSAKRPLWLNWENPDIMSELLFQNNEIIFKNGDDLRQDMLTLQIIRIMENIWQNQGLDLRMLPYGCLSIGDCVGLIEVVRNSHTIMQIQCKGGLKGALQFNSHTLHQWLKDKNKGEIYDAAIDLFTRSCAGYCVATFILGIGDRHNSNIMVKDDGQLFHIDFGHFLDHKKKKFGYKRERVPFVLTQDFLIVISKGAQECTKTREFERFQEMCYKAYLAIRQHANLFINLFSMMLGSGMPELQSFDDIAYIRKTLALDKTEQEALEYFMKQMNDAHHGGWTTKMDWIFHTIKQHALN
Sequence of PI3Kα (P27986 whole entry partner): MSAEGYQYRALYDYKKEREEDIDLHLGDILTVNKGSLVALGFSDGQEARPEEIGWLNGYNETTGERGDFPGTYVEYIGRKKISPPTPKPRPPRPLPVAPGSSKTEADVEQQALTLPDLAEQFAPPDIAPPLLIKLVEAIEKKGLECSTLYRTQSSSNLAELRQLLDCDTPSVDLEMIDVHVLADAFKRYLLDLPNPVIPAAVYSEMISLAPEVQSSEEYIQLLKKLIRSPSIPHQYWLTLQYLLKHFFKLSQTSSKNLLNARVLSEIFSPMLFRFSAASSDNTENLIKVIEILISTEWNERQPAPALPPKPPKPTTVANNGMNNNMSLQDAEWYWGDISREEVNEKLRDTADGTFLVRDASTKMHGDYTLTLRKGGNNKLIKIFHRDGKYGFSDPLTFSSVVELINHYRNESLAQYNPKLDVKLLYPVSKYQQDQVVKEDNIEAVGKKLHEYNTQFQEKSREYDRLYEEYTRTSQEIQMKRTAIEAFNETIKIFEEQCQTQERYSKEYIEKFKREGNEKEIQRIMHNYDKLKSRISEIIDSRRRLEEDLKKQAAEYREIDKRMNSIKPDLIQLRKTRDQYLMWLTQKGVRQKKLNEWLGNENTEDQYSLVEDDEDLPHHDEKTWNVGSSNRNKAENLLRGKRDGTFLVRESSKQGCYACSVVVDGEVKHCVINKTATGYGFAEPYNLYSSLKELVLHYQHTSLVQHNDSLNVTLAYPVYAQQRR

Consider `CCNC(=O)Nc1cc(C(F)(F)F)c(-c2nc(N3CCOCC3)c3cc(CN4CCN(S(C)(=O)=O)CC4)cn3n2)cn1` [Compound I-30, 1-ethyl-3-(5-(6-((4-(methylsulfonyl)piperazin-1-yl)methyl)-4-morpholinopyrrolo[2,1-f][1,2,4]triazin-2-yl)-4-(trifluoromethyl)pyridin-2-yl)urea], for which the IC50 was determined as 8.19 nM at PI3Kα; 820 nM in [1]; 32 nM with B-BT474; 2510 nM with B-MCF-7; 890 nM in the test on LG-NCI-H23; 660 nM with LG-NCI-H460. Further, the IC50 in the test on O-SKOV-3 was 46 nM; with P-PC-3, 601 nM; in [2] it was 9700 nM; in test [3] it was 493 nM; in test [4], 2000 nM; in test [5] it was 1550 nM. Also, the IC50 worked out at 3200 nM in test [6] and 256 nM in [7].
Take `CS(=O)(=O)N1CCN(Cc2cc3nc(-c4cccc5[nH]ncc45)nc(N4CCOCC4)c3s2)CC1` [GDC0941, reference compound]: the IC50 was 256 nM in the test on B-BT474; 519 nM in the test with B-MCF-7; 1200 nM with LG-NCI-H23; 1660 nM in the test on LG-NCI-H460; 316 nM in the test on O-SKOV-3; 636 nM with P-PC-3. Besides, the IC50 worked out at 8100 nM in test [2]; 517 nM in [3]; 2200 nM in [4]; 1670 nM in test [5]; 3200 nM in test [6]; 478 nM in test [7]. Also, the “Relative tumor proliferation rate T/C” value worked out at 100.00% in [8] (d0); 75.12% in test [8] (d3); 79.34% in test [8] (d7); 74.75% in test [8] (d10); 56.86% in test [8] (d14); 53.57% in test [8] (d17). In addition, in test [8] (d21), the “Relative tumor proliferation rate T/C” value is given as 51.40%.
